Measurements reported in patent US11187690B2, “Synthetic receptors for hydrosulfide” (University of Oregon, priority 2016, dated 2021).

Key:
[1] = UV-Vis titration with NBu4Cl in MeCN (Cl^− binding)
Procedure: (§1) To further investigate the difference in anion selectivity, binding constants were also measured at lower concentrations by UV-Vis spectroscopy in MeCN; the data are summarized in Table 1.

[2] = UV-Vis titration with NBu4SH in MeCN (HS^− binding); conditions: for HS^− binding constant: no DMSO co-solvent, 10 μM host
Procedure: as §1
We expected that removal of the DMSO co-solvent would increase the observed binding affinities since acetonitrile is a slightly less competitive solvent (especially as a hydrogen bond acceptor).

[3] = 1H NMR titration with NBu4SH (HS^− binding); conditions: 10% DMSO-d6/CD3CN; for selectivity for HS^− over Cl^−: 1H NMR titration data
Procedure: To investigate whether HS^− is a suitable anionic guest for compounds 1-3, we titrated NBu4SH into 0.5-1.0 mM solution of each host in 10% DMSO-d6/CD3CN and monitored the titrations by ^1H NMR spectroscopy. […] For example, upon addition of HS^− to a 0.988 mM solution of 1, the aryl CHa shifted from 7.99 to 9.24 ppm, and the NHb and NHc urea protons shift downfield from 7.94 and 8.92 to 8.63 and 11.18 ppm, respectively. […] We also confirmed that the observed changes in the NMR spectra upon HS^− addition were not merely due to deprotonation of the urea NH groups. […] Titration data of HS^− with the host fit to simple 1:1 binding isotherm models, and a new, upfield-shifted peak appears for bound hydrosulfide.
(§2) The higher selectivity is likely due to the pyridine lone pair acting as a hydrogen bond acceptor, which provides an additional stabilizing interaction for HS^− and a destabilizing interaction for Cl^−. The phenyl core of host 1 donates a hydrogen bond to both anionic guests, resulting in decreased selectivity for hydrosulfide, even if this CH hydrogen bond is an important component to the high overall binding energy.

[4] = 1H NMR comparison titration with NBu4Cl (Cl^− binding); conditions: 10% DMSO-d6/CD3CN
Excerpt: as §2

[5] = 13C{1H} NMR check of alkyne reactivity toward HS^−; assay type: physicochemical; conditions: 2.3 mM host, 10 equivalents of HS^−
[6] = Reversibility of HS^− binding (NBu4SH then Zn(OAc)2, 1H NMR); conditions: hydrogen-bond binding; for 1: 1.0 mM in 10% DMSO-d6/CD3CN, 2 equiv NBu4SH, 4 equiv Zn(OAc)2, 5 more equiv NBu4SH

| Cl^− ΔG [1] [kcal/mol] | HS^− ΔG [2] [kcal/mol] | HS^− binding constant ([2]; UV-Vis) | HS^− ΔG [3] [kcal/mol] | selectivity for HS^− over Cl^− [3] [fold] | Cl^− ΔG [4] [kcal/mol] | reactivity of host alkynes toward HS^− [5] | reversibility of HS^− binding [6] | SMILES | selectivity HS^−:Cl^− ([2]; UV-Vis) |
| --- | --- | --- | --- | --- | --- | --- | --- | --- | --- |
| -4.35 | -5.86 | ~25,000 M^−1 | -4.15 | 6 | -3.19 |  |  | COc1ccc(NC(=O)Nc2ccc(C(C)(C)C)cc2C#Cc2cccc(C#Cc3cc(C(C)(C)C)ccc3NC(=O)Nc3ccc(OC)cc3)n2)cc1 [Host 2] |  |
| -4.20 | -6.07 | ~25,000 M^−1 | -4.25 | 6 | -3.19 |  |  | CC(C)(C)c1ccc(NC(=O)Nc2ccccc2)c(C#Cc2cccc(C#Cc3cc(C(C)(C)C)ccc3NC(=O)Nc3ccccc3)n2)c1 [Host 3] |  |
| -6.18 | -6.76 | 90,300 M^−1 | -5.05 | 2.8 | -4.43 | alkynes were unreactive toward HS^− | confirming the reversibility of binding | COc1ccc(NC(=O)Nc2ccc(C(C)(C)C)cc2C#Cc2cccc(C#Cc3cc(C(C)(C)C)ccc3NC(=O)Nc3ccc(OC)cc3)c2)cc1 [Host 1] | remained similar to the 10% DMSO-d6/CD3CN system |
